US20260347338A1, “PYRIMIDINE/PYRIDINE DERIVATIVES OR SALTS THEREOF AND PHARMACEUTICAL COMPOSITIONS COMPRISING THE SAME” (YUHAN CORPORATION, priority 2023, published 2026)
Where a name gives a salt, the structure may show the parent alone.

biological target: T1, human recombinant HPK1 (Homo sapiens, UniProt Q92918); test: Inhibitory activity against human recombinant HPK1 (TR-FRET); format: biochemical; details: ULight-p70S6K peptide, ATP at Km, room temperature, 1 hour, 0.32 to 1000 nM compound
T1 construct: purchased BPS Bioscience
Protocol: Test Example: Evaluation of Inhibitory Activity Against Human Recombinant HPK1
The inhibitory activity against human recombinant HPK1 was evaluated using the Time-Resolved Fluorescence Resonance Energy Transfer (TR-FRET) technology of Perkin-Elmer. The test compound was prepared as a 20 mM stock solution with dimethyl sulfoxide (DMSO), serially diluted in a buffer solution, and used at final compound concentrations of 0.32 to 1000 nM. The evaluation of inhibitory activity was carried out at room temperature, using recombinant human HPK1 (BPS Bioscience). Briefly, recombinant human HPK1, serially diluted each test compound, ULight-p70S6K peptide substrate (PerkinElmer), and ATP at each concentration (Km and final concentration) were added to a kinase buffer solution (50 mM HEPES pH 7.4, 10 mM MgCl2, 1 mM EGTA, 3 mM MnCl2, 2 mM DTT, and 0.01% Tween-20). The resulting mixture was added to each well of a 384-well plate (Optiplate™ 384, white, PerkinElmer). The enzyme reaction was carried out at room temperature for 1 hour. After the reaction was suspended by adding 4 μL of a stop solution (10 mM EDTA) thereto, the mixture was stirred for 1 minute and then a detection solution containing Europium-labeled anti-phosphopeptide antibody (final concentration: 2 nM, PerkinElmer) was added thereto. The signals of TR-FRET at excitation wavelength (320 nm) and emission wavelength (665 nm) were detected using a microplate reader (Envision Multilabel Reader, Perkin-Elmer). Inhibition by the test compound was measured as % inhibition in the signals, compared to the control group treated with DMSO only. The IC50 value of each compound was calculated using the GraphPad Prism program (GraphPad Software, Inc., San Diego, CA, USA). The IC50 values of test compounds for inhibitory activity against HPK1 were classified as follows: • A: IC50≤10 nM • B: 10 nM<IC50≤50 nM • C: 50 nM<IC50≤100 nM • D: IC50>100 nM

T1 sequence (Q92918 whole entry): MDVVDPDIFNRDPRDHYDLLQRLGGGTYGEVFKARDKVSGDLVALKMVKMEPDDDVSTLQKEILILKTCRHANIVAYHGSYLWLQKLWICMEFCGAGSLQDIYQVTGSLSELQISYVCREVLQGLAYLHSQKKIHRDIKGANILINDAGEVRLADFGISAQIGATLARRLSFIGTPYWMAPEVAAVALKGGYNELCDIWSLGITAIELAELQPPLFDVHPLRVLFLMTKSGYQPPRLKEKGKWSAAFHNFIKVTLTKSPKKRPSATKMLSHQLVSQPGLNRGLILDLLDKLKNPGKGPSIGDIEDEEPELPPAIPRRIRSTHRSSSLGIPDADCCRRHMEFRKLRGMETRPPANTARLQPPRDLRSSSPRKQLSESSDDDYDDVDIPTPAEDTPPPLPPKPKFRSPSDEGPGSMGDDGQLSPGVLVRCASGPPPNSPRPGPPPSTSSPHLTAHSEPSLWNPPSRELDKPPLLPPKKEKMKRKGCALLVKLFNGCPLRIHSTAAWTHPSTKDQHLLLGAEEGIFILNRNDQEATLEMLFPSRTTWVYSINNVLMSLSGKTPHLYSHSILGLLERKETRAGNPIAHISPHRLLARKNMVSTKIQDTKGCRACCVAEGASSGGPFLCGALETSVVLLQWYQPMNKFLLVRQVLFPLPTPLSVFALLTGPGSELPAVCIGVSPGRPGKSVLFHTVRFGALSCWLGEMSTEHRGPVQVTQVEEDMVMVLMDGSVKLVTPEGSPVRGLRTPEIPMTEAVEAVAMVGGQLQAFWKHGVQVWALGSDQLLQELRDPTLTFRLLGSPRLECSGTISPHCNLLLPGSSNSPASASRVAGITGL

SMILES	IC50 [nM]
COc1cccc(F)c1-c1nc(Nc2cc(N3CCC[C@H](N)C3)c(-c3ccc(N4CCOCC4)nc3)cn2)ccc1C#N [Example 323, 6-((4-((S)-3-aminopiperidin-1-yl)-6′-morpholino-[3,3′-bipyridin]-6-yl)amino)-2-(2-fluoro-6-methoxyphenyl)nicotinonitrile hydrochloride]	≤ 10
COc1cccc(F)c1-c1nc(Nc2cc(N3CCC[C@H](N)C3)c(-c3cnn(C4CCOCC4)c3)cn2)ccc1C(=O)N(C)C [Example 130, 6-((4-((S)-3-aminopiperidin-1-yl)-5-(1-(tetrahydro-2H-pyran-4-yl)-1H-pyrazol-4-yl)pyridin-2-yl)amino)-2-(2-fluoro-6-methoxyphenyl)-N,N-dimethylnicotinamide hydrochloride]	≤ 10
CNC[C@@H]1CCCN(c2cc(Nc3ccnc(-c4c(F)cccc4OC)n3)ncc2-c2cnn(C(F)F)c2)C1 [Example 266, (S)-N-(5-(1-(difluoromethyl)-1H-pyrazol-4-yl)-4-(3-((methylamino)methyl)piperidin-1-yl)pyridin-2-yl)-2-(2-fluoro-6-methoxyphenyl)pyrimidin-4-amine hydrochloride]	≤ 10
OCc1csc(-c2nccc(Nc3cc(N4CCC[C@H](O)C4)c(-c4cnn(C5CCOCC5)c4)cn3)n2)c1 [Example 21, (S)-1-(2-((2-(4-(hydroxymethyl)thiophen-2-yl)pyrimidin-4-yl)amino)-5-(1-(tetrahydro-2H-pyran-4-yl)-1H-pyrazol-4-yl)pyridin-4-yl)piperidin-3-ol]	10 to 50
COc1cccc(F)c1-c1nccc(Nc2cc(N3CCC(C)(CO)C3)c(-c3cnn(C4CCOCC4)c3)cn2)n1 (centres unmarked) [Example 45, (1-(2-((2-(2-fluoro-6-methoxyphenyl)pyrimidin-4-yl)amino)-5-(1-(tetrahydro-2H-pyran-4-yl)-1H-pyrazol-4-yl)pyridin-4-yl)-3-methylpyrrolidin-3-yl)methanol]	> 100
COc1cccc(F)c1-c1nccc(Nc2cc(N3CC[C@@H](F)[C@H](O)C3)c(-c3cnn(C4CCOCC4)c3)cn2)n1 [Example 94, (3R,4R)-4-fluoro-1-(2-((2-(2-fluoro-6-methoxyphenyl)pyrimidin-4-yl)amino)-5-(1-(tetrahydro-2H-pyran-4-yl)-1H-pyrazol-4-yl)pyridin-4-yl)piperidin-3-ol]	≤ 10
COc1cccc(F)c1-c1nc(Nc2cc(N3CCC[C@H](O)C3)c(-c3cnn(CC(F)F)c3)cn2)ccc1C(N)=O [Example 160, 6-((5-(1-(2,2-difluoroethyl)-1H-pyrazol-4-yl)-4-((S)-3-hydroxypiperidin-1-yl)pyridin-2-yl)amino)-2-(2-fluoro-6-methoxyphenyl)nicotinamide]	≤ 10
COc1cccc(F)c1-c1nccc(Nc2cc(N3CCC[C@H](N)C3)c(-c3cnn([C@H]4CCNC4)c3)cn2)n1 [Example 239, N-(4-((S)-3-aminopiperidin-1-yl)-5-(1-((S)-pyrrolidin-3-yl)-1H-pyrazol-4-yl)pyridin-2-yl)-2-(2-fluoro-6-methoxyphenyl)pyrimidin-4-amine hydrochloride]	≤ 10
COc1cccc(F)c1-c1nccc(Nc2cc(N3CCC[C@H](O)C3)c(-c3ccc(CN4CCC(N)CC4)nc3)cn2)n1 [Example 55, (S)-1-(6′-((4-aminopiperidin-1-yl)methyl)-6-((2-(2-fluoro-6-methoxyphenyl)pyrimidin-4-yl)amino)-[3,3′-bipyridin]-4-yl)piperidin-3-ol hydrochloride]	10 to 50
N[C@H]1CCCN(c2cc(Nc3cccc(N4CCOC4=O)n3)ncc2-c2cnn(C3CCOCC3)c2)C1 [Example 127, (S)-3-(6-((4-(3-aminopiperidin-1-yl)-5-(1-(tetrahydro-2H-pyran-4-yl)-1H-pyrazol-4-yl)pyridin-2-yl)amino)pyridin-2-yl)oxazolidin-2-one hydrochloride]	10 to 50
COc1cccc(F)c1-c1nc(Nc2cc(N3CCC[C@H](O)C3)c(C(=O)N[C@@H]3CC[C@@H](N)C3)cn2)ccc1[N+](=O)[O-] [Example 199, N-((1R,3R)-3-aminocyclopentyl)-6-((6-(2-fluoro-6-methoxyphenyl)-5-nitropyridin-2-yl)amino)-4-((S)-3-hydroxypiperidin-1-yl)nicotinamide hydrochloride]	≤ 10
COc1cccc(F)c1-c1nccc(Nc2cc(N3CCC[C@H](N)C3)c(-c3ccc(F)c(F)c3)cn2)n1 [Example 294, (S)-N-(4-(3-aminopiperidin-1-yl)-5-(3,4-difluorophenyl)pyridin-2-yl)-2-(2-fluoro-6-methoxyphenyl)pyrimidin-4-amine hydrochloride]	≤ 10
COc1cc(F)cc(F)c1-c1nc(Nc2cc(N3CCC[C@H](O)C3)c(-c3cnn(C4CCOCC4)c3)cn2)ccc1N [Example 227, (3S)-1-(2-((5-amino-6-(2,4-difluoro-6-methoxyphenyl)pyridin-2-yl)amino)-5-(1-(tetrahydro-2H-pyran-4-yl)-1H-pyrazol-4-yl)pyridin-4-yl)piperidin-3-ol]	≤ 10
COc1cccc(F)c1-c1nccc(Nc2cc(N3CCC[C@H](N)C3)c(-c3cn(C)nc3C(F)(F)F)cn2)n1 [Example 131, (S)-N-(4-(3-aminopiperidin-1-yl)-5-(1-methyl-3-(trifluoromethyl)-1H-pyrazol-4-yl)pyridin-2-yl)-2-(2-fluoro-6-methoxyphenyl)pyrimidin-4-amine hydrochloride]	50 to 100
COc1cccc(F)c1-c1nccc(Nc2cc(N3CCC[C@@H](N)C3)c(-c3cnn(C4CCOCC4)c3)cn2)n1 [Example 53, (R)-N-(4-(3-aminopiperidin-1-yl)-5-(1-(tetrahydro-2H-pyran-4-yl)-1H-pyrazol-4-yl)pyridin-2-yl)-2-(2-fluoro-6-methoxyphenyl)pyrimidin-4-amine]	≤ 10
COc1cccc(F)c1-c1nccc(Nc2cc(N3CCC[C@H](O)C3)c(C(=O)C3CC3)cn2)n1 [Example 5, (S)-cyclopropyl(6-((2-(2-fluoro-6-methoxyphenyl)pyrimidin-4-yl)amino)-4-(3-hydroxypiperidin-1-yl)pyridin-3-yl)methanone]	10 to 50
COc1cccc(F)c1-c1nccc(Nc2cc(N3CCC[C@H](N)C3)c(-c3cnn([C@@H]4CCOC4)c3)cn2)n1 [Example 299, N-(4-((S)-3-aminopiperidin-1-yl)-5-(1-((R)-tetrahydrofuran-3-yl)-1H-pyrazol-4-yl)pyridin-2-yl)-2-(2-fluoro-6-methoxyphenyl)pyrimidin-4-amine hydrochloride]	≤ 10
COc1cccc(F)c1-c1nc(Nc2cc(N3CCC[C@H](O)C3)c(C#CC3CCOCC3)cn2)ccc1C(=O)O [Example 139, 2-(2-fluoro-6-methoxyphenyl)-6-((4-((S)-3-hydroxypiperidin-1-yl)-5-((tetrahydro-2H-pyran-4-yl)ethynyl)pyridin-2-yl)amino)nicotinic acid]	≤ 10
COc1cc(F)cc(F)c1-c1nc(Nc2cc(N3CCC[C@H](O)C3)c(-c3cnn(C(F)F)c3)cn2)ccc1N [Example 184, (3S)-1-(2-((5-amino-6-(2,4-difluoro-6-methoxyphenyl)pyridin-2-yl)amino)-5-(1-(difluoromethyl)-1H-pyrazol-4-yl)pyridin-4-yl)piperidin-3-ol]	≤ 10
COc1cccc(F)c1-c1nccc(Nc2cc(N3CC[C@H](F)[C@H](N)C3)c(-c3cnn(C(F)F)c3)cn2)n1 [Example 207, N-(4-((3R,4S)-3-amino-4-fluoropiperidin-1-yl)-5-(1-(difluoromethyl)-1H-pyrazol-4-yl)pyridin-2-yl)-2-(2-fluoro-6-methoxyphenyl)pyrimidin-4-amine hydrochloride]	≤ 10
COc1cccc(F)c1-c1nccc(Nc2cc(N3CC(O)C3)c(C(=O)C3CC3)cn2)n1 [Example 6, cyclopropyl(6-((2-(2-fluoro-6-methoxyphenyl)pyrimidin-4-yl)amino)-4-(3-hydroxyazetidin-1-yl)pyridin-3-yl)methanone]	10 to 50
COc1cccc(F)c1-c1nccc(Nc2cc(N3CC[C@@H](OC)[C@H](N)C3)c(-c3cnn(C(F)F)c3)cn2)n1 [Example 254, N-(4-((3R,4R)-3-amino-4-methoxypiperidin-1-yl)-5-(1-(difluoromethyl)-1H-pyrazol-4-yl)pyridin-2-yl)-2-(2-fluoro-6-methoxyphenyl)pyrimidin-4-amine]	≤ 10
COc1cc(F)cc(F)c1-c1nc(Nc2cc(N3CC[C@@H](C)[C@H](N)C3)c(-c3cnn(C(F)F)c3)cn2)ccc1C#N [Example 338, 6-((4-((3S,4R)-3-amino-4-methylpiperidin-1-yl)-5-(1-(difluoromethyl)-1H-pyrazol-4-yl)pyridin-2-yl)amino)-2-(2,4-difluoro-6-methoxyphenyl)nicotinonitrile hydrochloride]	≤ 10
